Reference: US8263605B2, “Modulators of muscarinic receptors” (Vertex Pharmaceutical Incorporated, priority 2006, dated 2012)

What was measured:
[1] = molecular target: T1, M4 muscarinic receptor (Homo sapiens, UniProt P08173); test: Functional mobilization of intracellular calcium (FLIPR), M4-CHO cells; type: cell-based; details: for Emax: 100% efficacy is the maximum response obtained with the Carbachol control; for M4 Activity: CHO cells expressing M4, calcium mobilization
T1 construct: expressed in transfected cells; host or cells: CHO (M4-CHO)
T1 sequence (P08173 1-479): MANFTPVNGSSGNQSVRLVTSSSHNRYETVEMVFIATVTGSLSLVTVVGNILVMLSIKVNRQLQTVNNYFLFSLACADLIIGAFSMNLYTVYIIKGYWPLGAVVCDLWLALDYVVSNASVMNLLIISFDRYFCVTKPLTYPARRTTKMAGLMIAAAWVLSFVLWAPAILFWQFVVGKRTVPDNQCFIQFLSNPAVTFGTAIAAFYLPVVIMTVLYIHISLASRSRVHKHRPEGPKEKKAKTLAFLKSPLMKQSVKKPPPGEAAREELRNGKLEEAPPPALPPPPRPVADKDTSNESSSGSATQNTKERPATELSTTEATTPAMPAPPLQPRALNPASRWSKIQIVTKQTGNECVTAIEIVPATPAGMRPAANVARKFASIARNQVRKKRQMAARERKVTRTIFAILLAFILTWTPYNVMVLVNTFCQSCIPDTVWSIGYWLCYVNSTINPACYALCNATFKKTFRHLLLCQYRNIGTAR
Experimental: (§1) Functional Mobilization of Intracellular Calcium to Determine Muscarinic Receptor Activity:
(§2) CHO cells expressing muscarinic receptors (M1 to M5) are grown as monolayers in tissue culture flasks at 37° C. in a humidified atmosphere containing 5% CO2 and passaged every 3-5 days. The growth media is Dulbecco's modified eagles medium (DMEM, Gibco Cat#12430-054), containing 25 mM Hepes and supplemented with Fetal Bovine Serum (Hyclone, cat# SH30071.03), 0.1 mM of MEM non-essential amino acids (GIBCO, Cat#11140-050), 1 mM MEM Sodium Pyruvate (GIBCO Cat#11360-070) and 100 units/ml of Penicillin G and 100 μg/ml of Streptomycin (GIBCO Cat#15140-122). The recombinant muscarinic receptor cell lines are grown under antibiotic pressure with media containing 25 μg/ml zeocin and 500 μg/ml G418 (M1-CHO), 4 μg/ml puromycin, 50 μg/ml zeocin and 2.5 μg/ml blasticidin (M2 and M4-CHO) or 50 μg/ml zeocin and 4 μg/ml puromycin (M3 and M5-CHO).
(§3) Cells are harvested at 80-90% confluence using Versene (GIBCO Cat#15040-066), collected by centrifugation and seeded 18-24 hours prior to running the calcium assay at a density of 5,000-10,000 cells/well in […], clear-bottomed 384-well plates (BD Biocoat, poly-D-lysine, Cat#356663). The day of the experiment, the cells are washed with a plate washer (Bioteck Instrunents, ELX 405) using bath 1 buffer (140-mM NaCl, 4.5-mM KCl, 2-mM CaCl2, 1-mM MgCl2, 10-mM Hepes-Na, 10-mM Glucose, pH 7.4, with NaOH) containing 1 mM Probenecid. Next, the calcium dye Fluo-3 (25 μl/well of Fluo-3 AM at 4 μM, Molecular Probes F-1241, in Bath 1 buffer containing 1 mM Probenecid) is added to the 25 μl of Bath 1 remaining in each well after the plate wash and the dye is loaded at 37° C. in the tissue culture incubator for 60-90 min. The fluorescent dye is removed using the plate washer with Bath 1 containing 1 mM Probenecid, leaving 25 μl/well of this solution after the wash. Alternatively, cells can be loaded with the calcium indicator from Molecular Devices (Calcium 3 Assay Reagents, Cat # R7181) adding 5 μl of a 5× solution dye in Bath 1 containing 1 mM Probenecid (10 ml per dye flask cat# R7182 to generate a solution 20×) to 20 μl of the same buffer. After loading for 60 min, the experiment can be run without having to remove the dye.
(§4) Compounds are prepared at a 2× fold concentration in a 96-well plate (round bottom, Costar Corning cat#3656), by reconstituting the pre-spotted compounds in bath 1 containing 1 mM probenecid. The final concentration DMSO is 0.5%, and the amount of DMSO is normalized across the assay plate. To determine an agonist action of the compounds on muscarinic receptors, the reconstituted compounds are added (25 μl compound/well) to the cell assay plate (containing 25 μl/well) using the multi-channel robotic system of the FLIPR 3 Instrument (Molecular Devices, Sunnyvale, Calif.). To determine a functional inhibitory action of the compounds on muscarinic receptors, the reconstituted compounds are added (25 μl compound/well) to the assay plate and pre-incubated for 15 min prior to adding 25 μl of Carbachol at 3× the EC80 for each muscarinic subtype. Alternatively, the compounds can be co-applied simultaneously with the agonist. In both assay modes, the fluorescence is recorded for 60 sec (excitation wavelength is […] and emission wavelength 540 nm) using the FLIPR 3 instrument.
(§5) The potency, efficacy and selectivity of the muscarinic compounds were evaluated by screening the compound activity across the whole family (M1 to M5 cells). Compounds were also screened for activity on other proteins such as other GPCRs and ion channels to determine selectivity on M4 receptors.
(§6) Examples of activities and efficacies of the muscarinic compounds of formulae (I, Ia, Ib, Ic, Id, and Ie) on modulating M1 and M4 receptors are shown below in Table 4. […]

[2] = molecular target: T2, M1 muscarinic receptor (Homo sapiens, UniProt P11229); test: Functional mobilization of intracellular calcium (FLIPR), M1-CHO cells; type: cell-based; details: for Emax: 100% efficacy is the maximum response obtained with the Carbachol control; for M1 Activity: CHO cells expressing M1, calcium mobilization
T2 construct: expressed in transfected cells; host or cells: CHO (M1-CHO)
T2 sequence (P11229 1-460): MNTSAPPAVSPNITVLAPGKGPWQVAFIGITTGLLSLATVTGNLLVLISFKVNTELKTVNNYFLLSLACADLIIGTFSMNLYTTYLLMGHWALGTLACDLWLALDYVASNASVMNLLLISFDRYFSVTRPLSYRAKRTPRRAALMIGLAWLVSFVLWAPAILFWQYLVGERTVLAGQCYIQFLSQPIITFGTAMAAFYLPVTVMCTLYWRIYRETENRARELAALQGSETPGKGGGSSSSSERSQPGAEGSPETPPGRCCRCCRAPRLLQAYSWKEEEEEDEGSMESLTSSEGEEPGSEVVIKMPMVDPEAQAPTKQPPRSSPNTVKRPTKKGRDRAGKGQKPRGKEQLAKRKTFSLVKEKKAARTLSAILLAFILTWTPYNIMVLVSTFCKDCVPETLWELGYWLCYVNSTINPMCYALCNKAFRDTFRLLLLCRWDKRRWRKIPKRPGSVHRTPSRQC
Experimental: as §1, §2, §3, §4, §5, §6

SMILES: C#CCOC(=O)N1CCC(N2CCC3(CCN(C(=O)N(C)C)c4ccccc43)CC2)CC1 [compound 4]
- Emax [1]: 25 to 100%
- M4 Activity [1]: +++ (activity was measured to be less than 2.0 μM)
- Emax [2]: 25 to 100%
- M1 Activity [2]: +++ (activity was measured to be less than 2.0 μM)

SMILES: Cc1nsc(N2CCC(N3CCC4(CCN(C(=O)N(C)C)c5ccccc54)CC3)CC2)n1 [compound 6]
- Emax [1]: 25 to 100%
- M4 Activity [1]: +++ (activity was measured to be less than 2.0 μM)
- Emax [2]: 25 to 100%
- M1 Activity [2]: +++ (activity was measured to be less than 2.0 μM)

SMILES: CCc1nsc(N2CCC(N3CCC4(CCN(C(=O)N(C)C)c5ccccc54)CC3)CC2)n1 [compound 7]
- Emax [1]: 25 to 100%
- M4 Activity [1]: +++ (activity was measured to be less than 2.0 μM)
- Emax [2]: 25 to 100%
- M1 Activity [2]: +++ (activity was measured to be less than 2.0 μM)

SMILES: CN(C)C(=O)N1CCC2(CCN(C3CCN(c4cnccn4)CC3)CC2)c2ccccc21 [compound 8]
- Emax [1]: 25 to 100%
- M4 Activity [1]: +++ (activity was measured to be less than 2.0 μM)
- Emax [2]: 25 to 100%
- M1 Activity [2]: +++ (activity was measured to be less than 2.0 μM)

SMILES: COC(=O)N1CCC(N2CCC3(CCN(C(C)=O)c4ccccc43)CC2)CC1 [compound 10]
- Emax [1]: 25 to 100%
- M4 Activity [1]: +++ (activity was measured to be less than 2.0 μM)
- Emax [2]: 25 to 100%
- M1 Activity [2]: +++ (activity was measured to be less than 2.0 μM)

SMILES: C#CCOC(=O)N1CCC(N2CCC3(CCN(C(C)=O)c4ccccc43)CC2)CC1 [compound 12]
- Emax [1]: 25 to 100%
- M4 Activity [1]: +++ (activity was measured to be less than 2.0 μM)
- Emax [2]: > 100%
- M1 Activity [2]: +++ (activity was measured to be less than 2.0 μM)

SMILES: CC#CCOC(=O)N1CCC(N2CCC3(CCN(C(C)=O)c4ccccc43)CC2)CC1 [compound 13]
- Emax [1]: 25 to 100%
- M4 Activity [1]: +++ (activity was measured to be less than 2.0 μM)
- Emax [2]: 25 to 100%
- M1 Activity [2]: +++ (activity was measured to be less than 2.0 μM)

SMILES: CCC#CCOC(=O)N1CCC(N2CCC3(CCN(C(C)=O)c4ccccc43)CC2)CC1 [compound 14]
- Emax [1]: 25 to 100%
- M4 Activity [1]: +++ (activity was measured to be less than 2.0 μM)
- Emax [2]: 25 to 100%
- M1 Activity [2]: +++ (activity was measured to be less than 2.0 μM)

SMILES: CC(=O)N1CCC2(CCN(C3CCN(c4nc(C)ns4)CC3)CC2)c2ccccc21 [compound 15]
- Emax [1]: 25 to 100%
- M4 Activity [1]: +++ (activity was measured to be less than 2.0 μM)
- Emax [2]: 25 to 100%
- M1 Activity [2]: +++ (activity was measured to be less than 2.0 μM)

SMILES: CCc1nsc(N2CCC(N3CCC4(CCN(C(C)=O)c5ccccc54)CC3)CC2)n1 [compound 16]
- Emax [1]: 25 to 100%
- M4 Activity [1]: +++ (activity was measured to be less than 2.0 μM)
- Emax [2]: 25 to 100%
- M1 Activity [2]: +++ (activity was measured to be less than 2.0 μM)

SMILES: CC(=O)N1CCC2(CCN(C3CCN(c4cnccn4)CC3)CC2)c2ccccc21 [compound 17]
- Emax [1]: 25 to 100%
- M4 Activity [1]: +++ (activity was measured to be less than 2.0 μM)
- Emax [2]: 25 to 100%
- M1 Activity [2]: +++ (activity was measured to be less than 2.0 μM)

SMILES: CC(=O)N1CCC2(CCN(C3CCN(c4cnc5ccccc5n4)CC3)CC2)c2ccccc21 [compound 18]
- Emax [1]: 25 to 100%
- M4 Activity [1]: +++ (activity was measured to be less than 2.0 μM)
- Emax [2]: 25 to 100%
- M1 Activity [2]: ++ (activity was measured to be from 2.0 μM to 10.0 μM)

SMILES: CN(C)C(=O)N1CCC2(CCN(C3CCN(C(=O)OCCC#N)CC3)CC2)c2ccccc21 [compound 19]
- Emax [1]: 25 to 100%
- M4 Activity [1]: +++ (activity was measured to be less than 2.0 μM)
- Emax [2]: < 25%
- M1 Activity [2]: ++ (activity was measured to be from 2.0 μM to 10.0 μM)

SMILES: CN(C)C(=O)N1CCC2(CCN(C3CCN(c4nncs4)CC3)CC2)c2ccccc21 [compound 21]
- Emax [1]: < 25%
- M4 Activity [1]: ++ (activity was measured to be from 2.0 μM to 10.0 μM)
- Emax [2]: 25 to 100%
- M1 Activity [2]: ++ (activity was measured to be from 2.0 μM to 10.0 μM)

SMILES: Cc1csc(N2CCC(N3CCC4(CCN(C(=O)N(C)C)c5ccccc54)CC3)CC2)n1 [compound 22]
- Emax [1]: 25 to 100%
- M4 Activity [1]: ++ (activity was measured to be from 2.0 μM to 10.0 μM)
- Emax [2]: 25 to 100%
- M1 Activity [2]: ++ (activity was measured to be from 2.0 μM to 10.0 μM)

SMILES: CC(=O)N1CCC2(CCN(C3CCN(c4nncs4)CC3)CC2)c2ccccc21 [compound 23]
- Emax [1]: 25 to 100%
- M4 Activity [1]: ++ (activity was measured to be from 2.0 μM to 10.0 μM)
- Emax [2]: 25 to 100%
- M1 Activity [2]: ++ (activity was measured to be from 2.0 μM to 10.0 μM)

SMILES: CC(=O)N1CCC2(CCN(C3CCN(c4nccs4)CC3)CC2)c2ccccc21 [compound 24]
- Emax [1]: < 25%
- M4 Activity [1]: ++ (activity was measured to be from 2.0 μM to 10.0 μM)
- Emax [2]: 25 to 100%
- M1 Activity [2]: ++ (activity was measured to be from 2.0 μM to 10.0 μM)

SMILES: CC(=O)N1CCC2(CCN(C3CCN(c4nc(C)cs4)CC3)CC2)c2ccccc21 [compound 25]
- Emax [1]: 25 to 100%
- M4 Activity [1]: ++ (activity was measured to be from 2.0 μM to 10.0 μM)
- Emax [2]: 25 to 100%
- M1 Activity [2]: ++ (activity was measured to be from 2.0 μM to 10.0 μM)

SMILES: COC(=O)N1C2CCC1CC(N1CCC3(CCN(C(=O)N(C)C)c4ccccc43)CC1)C2 (centres unmarked) [compound 26]
- Emax [1]: 25 to 100%
- M4 Activity [1]: +++ (activity was measured to be less than 2.0 μM)
- Emax [2]: 25 to 100%
- M1 Activity [2]: ++ (activity was measured to be from 2.0 μM to 10.0 μM)

SMILES: CCOC(=O)N1C2CCC1CC(N1CCC3(CCN(C(=O)N(C)C)c4ccccc43)CC1)C2 (centres unmarked) [compound 27]
- Emax [1]: 25 to 100%
- M4 Activity [1]: +++ (activity was measured to be less than 2.0 μM)
- Emax [2]: 25 to 100%
- M1 Activity [2]: +++ (activity was measured to be less than 2.0 μM)
